Experimental data published in patent US20090304668A1, “LARVAL POLYPEPTIDES HAVING A NUCLEASE ACTIVITY” (The Secretary of State for Defence, priority 2006, published 2009).

Experiments:
[1] = system: bacterial genomic DNA; experiment: Agarose gel electrophoresis of bacterial genomic DNA in presence of soybean trypsin inhibitor and EDTA; format: biochemical, E. coli; conditions: 20 minutes 37° C.
Experimental: Samples containing bacterial genomic DNA, and ES or DNase in the absence and presence of EDTA and a soybean trypsin inhibitor were loaded onto an agarose gel to observe the effects of these inhibitors on DNase activity. A soybean trypsin inhibitor (Sigma) was washed 4 times with PBS and each time centrifuged into a pellet and the PBS removed as the supernatant. On the 5th washing, 500 μl of PBS were used to suspend the trypsin inhibitor and this was equally distributed between the samples to be treated. Samples of ES 162.3 μg/ml and PBS (control) were treated with the soybean trypsin inhibitor in order to remove any serine proteinases present. These samples were treated with STI 3 times in order to achieve maximal removal of serine proteinases, again following each treatment the solution was centrifuged and the ES/PBS removed as the supernatant. Following washing, these solutions were transferred to a fresh Eppendorf.
15.34 μl of 1.385 mg/ml bacterial genomic DNA was diluted to 0.1 mg/ml in 184.6 μl of either sterile PBS or 5 mM EDTA. 121.1 μg/ml DNase was also made up (10 μl of 1 mg/ml diluted in 72.6 μl of PBS.) In order to make up the samples, 50 μl of the appropriate one of these DNA solutions plus 3.125 μl of STI treated/untreated DNase/ES/PBS. […]

[2] = system: DNA methyl green; experiment: Dose dependency curves (DNA methyl green, 96 well plate); format: biochemical; conditions: for EC50: 37° C.
Experimental: In order to further characterise ES, dose dependency curves were created enabling the EC50 value to be determined. ES was diluted to a concentration of 13.40 μg/ml in PBS, following this 1 in 10 dilutions in PBS were then performed. DNase was diluted to a concentration of 10 μg/ml in PBS, this was then also subject to 1 in 10 dilutions. 20 μl of each dilution was added to 180 μl of 0.2 mg/ml DNA methyl green in a 96 well plate (done in triplicate). Absorbance readings were then taken after 3, 18, and 24 hours at 630 nm in an Anthos Lucy1 microplate luminometer. The dose dependency curves were created by plots of log10 concentration (mcg/ml) against mean absorbance (630 nm) in the statistical analysis program, GraphPad Prism™.

[3] = system: DNA methyl green; experiment: DNA methyl green assay of ES and DNase activity in the presence of EDTA; format: biochemical; conditions: 5.07 μg/ml ES, 3.78 μg/ml DNase
Experimental: 125 μl of 81.15 μg/ml ES was added to both 1875 μl DNA methyl green (0.2 mg/ml) and DNA methyl green containing 5 mM EDTA. Final concentrations are therefore 5.07 μg/ml ES and 4.7 mM EDTA. DNase was diluted to 121.1 μg/ml, diluted 1 in 2 and added to 1875 μl of DNA methyl green and DNA methyl green containing EDTA. The activity of STI treated ES was also assayed in the same way, in the presence of or in the absence of EDTA. These samples were then incubated in a water bath at 37° C. 100 μl samples were taken every 2 minutes (in triplicate) and added to 150 μl of 0.083M sodium citrate in a 96 well plate. The plates were left to stand overnight and the absorbance then read at 630 nm in an Anthos Lucy1 microplate luminometer.

DNase
degradation of bacterial genomic DNA in presence of EDTA ([1]; 5 mM EDTA): no DNase activity
degradation of bacterial genomic DNA in absence of EDTA ([1]; untreated, no EDTA): no DNase activity
EC50 ([2]; absorbance reading at 3 hours): 0.1921 µg/mL
EC50 ([2]; absorbance reading at 18 hours): 0.0605 µg/mL
EC50 ([2]; absorbance reading at 24 hours): 0.0571 µg/mL
potency of DNase relative to ES ([2]; from EC50 values): 3 times
DNase activity in the presence of EDTA ([3]; EDTA): activity almost abolished
DNase activity in the absence of EDTA ([3]; no EDTA): relatively similar activity
